{"source": "patent US20080241943A1", "about": "“Subnanomolar Precipitator of Thiophilic Metals” (The Scripps Research Institute, priority 2004, published 2008)", "key": {"[1]": {"conditions": "cited from earlier work"}, "[2]": {"test": "Thiophilic metal precipitation by ligand", "format": "physicochemical", "conditions": "for metal salt concentration at which precipitation was visually apparent: 10% aqueous CH3CN", "description": "(§1) General procedure for thiophilic metal precipitation. A 10 μL aliquot of a 200 mM stock of metal ion in water was incubated at room temperature with 200 μL of a 10 mM stock of ligand 3a in CH3CN. Red precipitates from 3a appeared upon increasing the amount of water in the final reaction mixture to over 20% (v/v). The formation of these red precipitates provided an ideal tool for verification of sample quality. Red precipitates from 3a were readily removed by triturating the precipitate with acetonitrile."}, "[3]": {"test": "Heavy metal competitions (precipitation in the presence of other metal ions)", "format": "physicochemical", "conditions": "mixtures containing Cu^2+", "description": "(§2) Determination of solubility products (Ksp). Weight analysis (FIG. 2A): Ksp values were determined either by weighing the amount of precipitate 4a. Scale-up was required to provide sufficient material for analysis on conventional microbalances. The following procedure was used for this analysis: a 100 μL aliquot of a 200 mM stock of metal ion in water was incubated at room temperature with 2 mL of a 10 mM stock of ligand 3a in acetonitrile. After 10 minutes the precipitate was isolated by centrifugation for 5 min at 2,000×g, washed with acetonitrile (5 ml), methanol (5 ml) and dried in vacuo. Spectrophotometric analysis (FIG. 2B): A 10 μL aliquot of a 200 mM stock of metal ion in water was added to 200 μL of a 10 mM stock of ligand 3a in acetonitrile in a spin filter (Millipore). After 10 minutes at rt, the precipitate was removed by centrifugation at 2,000×g. Spectroscopic analysis of the supernatant was performed on a conventional microarray reader (PerSeptive Biosystems CytoFluor or Perkin Elmer HST 7000 plate reader).\nHeavy metal competitions. A 167 μL aliquot of a 20 mM stock of metal ion in water was incubated at room temperature with 333 μL of a 10 mM stock of ligand 3a in acetonitrile. […] The supernatant was analyzed on a PerSeptive Biosystems CytoFluor or Perkin Elmer HST 7000 plate reader using excitation at 510 nm. […]"}, "[4]": {"test": "Thiophilic metal precipitation by ligand, panel of metal ions", "format": "physicochemical", "conditions": "spectroscopic analyses; did not correlate with Ksp", "description": "as §1"}, "[5]": {"test": "Precipitation of free ligand from aqueous CH3CN", "format": "physicochemical", "conditions": "10 mM 3a stock in CH3CN, room temperature", "description": "as §1"}, "[6]": {"test": "Determination of the extent of metal precipitation (vapor atomic absorption of supernatant)", "format": "physicochemical", "conditions": "after reacting 6.7±0.01 mM Hg(OAc)2 with 6.7±0.01 mM 3a", "description": "Determination of the extent of metal precipitation. An 167 μL aliquot of a 20 mM stock of Hg(OAc)2 in water was incubated at room temperature with 333 μL of a 10 mM stock of ligand 3 in CH3CN. Precipitation occurred immediately. After 5 minutes the sample was centrifuged for 5 min at 14,000×g. The supernatant was removed and an aliquot submitted to vapor atomic absorption analysis (Galbraith Laboratories, Knoxyille, Tenn.)."}, "[7]": {"test": "Determination of solubility products (Ksp), reproducibility", "format": "physicochemical", "conditions": "concentrations 1 mM-0.1 μM, pH 3-10, temperature 0-50° C.", "description": "as §2"}}, "data": [{"smiles": "O=C(O)CN(CC(=O)O)c1ccc(-c2c3cc(F)c(=O)cc-3oc3cc(O)c(F)cc23)cc1OCCOc1cc([N+](=O)[O-])ccc1N(CC(=O)O)CC(=O)O", "note": "[Fluo-5N]", "values": [{"measurement": "affinity to Cd^2+ relative to La^3+", "setting": "[1]; at 1 μM", "result": "O-fold"}, {"measurement": "affinity for La^3+ over Cd^2+", "setting": "[1]; at 100 μM", "result": 2, "unit": "fold"}]}, {"smiles": "CCCCCCCCCCc1ccc(C2(c3ccc(CCCCCCCCCC)cc3)SC(=S)c3ccccc32)cc1", "note": "[3b, 3,3-Bis(4-decylphenyl)benzo[c]thiophene-1(3H)-thione]", "values": [{"measurement": "induction time of precipitation", "setting": "[2]; by Hg^2+", "result": "> 5", "unit": "min"}, {"measurement": "induction time of precipitation", "setting": "[2]; by Pb^2+", "result": "> 5", "unit": "min"}]}, {"smiles": "S=C1SC(c2ccccc2)(c2ccccc2)c2ccccc21", "note": "[3a, 3,3-Diphenylbenzo[c]thiophene-1(3H)-thione]", "values": [{"measurement": "Cu^2+ tolerated in analysis of Hg^2+, Pb^2+ and Cd^2+", "setting": "[3]", "result": 500, "unit": "equivalents"}, {"measurement": "rate of precipitation (order of metal ions)", "setting": "[4]", "result": "Hg^2+>Pb^2+>Cd^2+>(Au^3+˜Cu^2+)>(Pd^2+˜Ni^2+)>(Co^2+˜Mo^2+˜Pt^2+)"}, {"measurement": "amount of water in the final reaction mixture at which red precipitates from 3a appeared", "setting": "[5]", "result": "over 20 % (v/v)"}, {"measurement": "amount of Hg^2+ left in supernatant", "setting": "[6]", "result": "0.58 ± 0.03", "unit": "µM"}, {"measurement": "metal salt concentration at which precipitation was visually apparent", "setting": "[2]; CdCl2 added to 25 μM 3a", "result": 50, "unit": "µM"}, {"measurement": "metal salt concentration at which precipitation was visually apparent", "setting": "[2]; Hg(OAc)2 added to 1 μM 3a", "result": 2, "unit": "µM"}, {"measurement": "metal salt concentration at which precipitation was visually apparent", "setting": "[2]; Pb(OAc)2 added to 5 μM 3a", "result": 10, "unit": "µM"}, {"measurement": "deviation of Ksp values", "setting": "[7]", "result": "≤ 1", "unit": "%"}]}]}
